Experimental data from PubChem BioAssay (NCI).
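Exposure lasted 48 hours, with cells grown in 96-well plates and compounds tested at five concentrations. TGI: concentration producing complete growth inhibition.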

How the values were obtained:
Test in all cases: NCI-60 cell line screen, 48 h
PC-3 prostate = test system: PC-3 prostate
A549 NSCLC = test system: A549 NSCLC
SF-539 CNS = test system: SF-539 CNS
SK-MEL-28 melanoma = test system: SK-MEL-28 melanoma
HS 578T breast = test system: HS 578T breast
HOP-62 NSCLC = test system: HOP-62 NSCLC
COLO 205 colon = test system: COLO 205 colon
ACHN renal = test system: ACHN renal
SK-MEL-5 melanoma = test system: SK-MEL-5 melanoma
RPMI-8226 leukemia = test system: RPMI-8226 leukemia
LOX IMVI melanoma = test system: LOX IMVI melanoma
OVCAR-3 ovarian = test system: OVCAR-3 ovarian
HT29 colon = test system: HT29 colon
UO-31 renal = test system: UO-31 renal
NCI-H23 lung = test system: NCI-H23 lung
MDA-N = test system: MDA-N
EKVX NSCLC = test system: EKVX NSCLC
SNB-19 CNS = test system: SNB-19 CNS
OVCAR-4 ovarian = test system: OVCAR-4 ovarian
HCT-116 colon = test system: HCT-116 colon

Measured: TGI

CSc1nc(N)c2c(-c3ccccc3)c3c(nc2n1)CCCC3
48.5 µM: HS 578T breast
> 100 µM: all other assays above
